According to the supplement of paper PMC10307832:

How the values were obtained:
Test in all cases: relative viability (nuclei count vs DMSO), 5 days (fraction); higher = more cells survive
[1] = compound: CCC1=CN=CN=C1N2CCN(CC2)CC3=NC4=C(N3)C=C(C=C4)C(F)(F)F
Method in brief: (§1)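 Viability was defined as treated-well nuclei divided by vehicle-well nuclei, with the median taken over replicate plates. Cells from lung cancer lines sat overnight at 37 °C in 1536-well plates, received five √10-spaced library-drug doses by pinning on vehicle-anchored plates, and grew 5 days without medium change before one-step fixation, permeabilisation and Hoechst staining, 4× imaging and MetaXpress nuclear counts. Only plates with control CV under 25% and at least one doubling were kept.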

[2] = compound: CCn1c(-c2nonc2N)nc2cnc(Oc3cccc(NC(=O)c4ccc(OCCN5CCOCC5)cc4)c3)cc21
Method in brief: as §1

[3] = compound: N=C1NC(=O)/C(=C/c2ccc(O)cc2)S1 [Mirin]
Method in brief: as §1

[4] = compound: CCn1c(-c2nonc2N)nc2cnc(Oc3cccc(NC(=O)c4ccc(OCCN5CCOCC5)cc4)c3)cc21 + C[C@@H](Oc1cc(-c2cnn(C3CCNCC3)c2)cnc1N)c1c(Cl)ccc(F)c1Cl [Crizotinib] (partner 1 µM)
Method in brief: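 The day after seeding in 1536-well plates, lung cancer cell lines were treated by pin tool with a single drug, or with a fixed anchor-drug dose together with five library-drug doses (not always all listed) in √10 steps. After 5 days, a combined fix-and-stain solution (final 0.05% Triton X-100, 1% formaldehyde, 1 ug/ml Hoechst) was added. Nuclei counted on 4× images gave relative viability as treated counts over vehicle counts, reported as the median of duplicate plates.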

Cell Line	relative viability ([1]; 0.04 µM)	relative viability ([1]; 0.1265 µM)	relative viability ([1]; 0.4 µM)	relative viability ([1]; 1.265 µM)	relative viability ([1]; 4 µM)	relative viability ([2]; 0.04 µM)	relative viability ([2]; 0.1265 µM)	relative viability ([2]; 0.4 µM)	relative viability ([2]; 1.265 µM)	relative viability ([2]; 4 µM)	relative viability ([3]; 0.25 µM)	relative viability ([3]; 0.7906 µM)	relative viability ([3]; 2.5 µM)	relative viability ([3]; 7.906 µM)	relative viability ([3]; 25 µM)	relative viability ([4]; first compound 0.04 µM)	relative viability ([4]; first compound 0.1265 µM)	relative viability ([4]; first compound 0.4 µM)	relative viability ([4]; first compound 1.265 µM)	relative viability ([4]; first compound 4 µM)
201T	0.98	0.956	0.97	0.869	1.05	1.06	0.961	0.811	0.778	0.834	1.03	1.03	0.974	1.05	1.02	1	1.02	1.03	1.03	0.964
A549	0.978	0.868	0.921	0.934	0.89	1.24	1.01	0.742	0.116	0.116	1.01	0.982	1.05	0.913	0.953	0.837	0.417	0.223	0.086	0.114
A-427	0.885	0.961	0.857	0.808	0.887	1.23	0.936	0.727	0.587	0.444	0.983	0.716	1.02	0.961	1.03	0.966	1.08	0.846	0.998	0.879
ABC-1	0.946	0.807	0.816	0.742	0.828	1.09	0.906	0.545	0.452	0.447	0.996	0.806	0.949	0.759	0.487	1.7	0.973	1	0.608	0.396
BEN	0.836	0.929	0.928	0.594	0.675	0.92	0.816	0.514	0.362	0.452	0.857	1.01	1.2	0.812	0.549	0.818	0.869	0.631	0.318	0.303
CAL-12T	0.985	0.941	0.958	0.974	1.01	1.33	1.13	0.927	0.479	0.654	1.07	0.861	1.02	0.982	1.23	0.74	0.5	0.371	0.298	0.215
COR-L23	0.985	0.989	0.937	0.932	0.922	1.1	0.846	0.497	0.252	0.19	1.04	1.13	1.09	1.06	1.02	0.598	0.341	0.329	0.133	0.107
COR-L 105	0.875	0.932	0.978	0.746	0.906	0.919	0.776	0.761	0.43	0.443	1.09	1.12	1.06	1.02	0.833	0.663	0.571	0.371	0.273	0.264
Calu-6	1	0.986	0.953	0.898	0.925	1.05	1.02	0.841	0.604	0.549	1.02	1.07	1.06	0.923	0.987	0.864	0.698	0.519	0.346	0.373
ChaGo-K-1	1.01	0.961	0.932	0.961	0.97	1.14	1.02	0.801	0.833	0.879	0.986	0.916	0.93	0.887	0.833	1.31	1.04	0.96		0.633
EBC-1	1.08	1.01	0.986	0.946	0.996	1.24	1.01	0.913	0.904	0.797	1.09	1.19	1.05	0.987	0.665	0.227	0.207	0.175	0.17	0.136
EKVX	1.03	0.806	0.933	0.782	1.04	1.24	0.957	0.932	0.87	0.855	0.962	0.905	1.09	0.925	0.986	1.14	0.994	0.893	0.724	0.788
EMC-BAC-2	0.77	0.877	0.925	0.802	1.15	0.94	0.862	0.43	0.405	0.343	0.993	0.907	1.01	0.857	0.971	0.904	0.823	0.789	0.733	0.701
EPLC-272H	0.801	0.979	0.87	0.797	0.793	1.26	1.01	0.873	0.705	0.74	0.944		0.945	0.762	0.721	1.24	1.12	0.83	0.871	0.932
H3255	0.97	0.95	0.913	0.874	0.919	1.14	1.01	0.898	0.67	0.732	0.982	0.962	0.992	0.936	1	1.13	0.815	0.725	0.49	0.637
HARA	0.891	0.902	0.863	0.654	1.08	1.11	0.782	0.563	0.258	0.28	1.09	0.803	0.918	0.939	0.916	1.15	1.08	1.1	0.335	0.241
